A short description of experiment [1]: Inhibition of xenopus porcupine expressed in human HT1080 cells assessed as reduction in beta catenin reporter activity using firefly luciferase substrate STF reporter assay. In kind it is cell-based. The conditions noted are these: ht-1080.
Experiment [2] concerns the target T1, Protein-serine O-palmitoleoyltransferase porcupine (Mus musculus, UniProt Q9JJJ7).
T1 sequence (Q9JJJ7 whole entry): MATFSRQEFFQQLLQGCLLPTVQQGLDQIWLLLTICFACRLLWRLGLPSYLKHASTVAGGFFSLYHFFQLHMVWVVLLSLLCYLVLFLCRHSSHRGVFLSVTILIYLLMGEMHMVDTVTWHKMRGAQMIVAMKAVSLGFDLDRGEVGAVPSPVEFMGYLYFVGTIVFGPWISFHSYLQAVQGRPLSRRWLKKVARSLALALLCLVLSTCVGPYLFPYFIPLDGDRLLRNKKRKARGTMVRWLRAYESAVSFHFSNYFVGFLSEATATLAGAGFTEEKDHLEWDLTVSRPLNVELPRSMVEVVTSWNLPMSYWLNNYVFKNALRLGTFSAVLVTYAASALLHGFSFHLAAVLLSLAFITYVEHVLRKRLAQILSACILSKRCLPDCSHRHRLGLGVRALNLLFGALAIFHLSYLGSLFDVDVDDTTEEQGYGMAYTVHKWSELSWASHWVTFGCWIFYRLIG
Nature of the experiment: Inhibition of mouse porcupine expressed in human HT1080 cells assessed as reduction in beta catenin reporter activity using firefly luciferase substrate STF reporter assay. In kind it is cell-based, HT-1080.

The target of experiment [3] is T2, Protein-serine O-palmitoleoyltransferase porcupine (Homo sapiens) (UniProt Q9H237).
T2 sequence (whole entry): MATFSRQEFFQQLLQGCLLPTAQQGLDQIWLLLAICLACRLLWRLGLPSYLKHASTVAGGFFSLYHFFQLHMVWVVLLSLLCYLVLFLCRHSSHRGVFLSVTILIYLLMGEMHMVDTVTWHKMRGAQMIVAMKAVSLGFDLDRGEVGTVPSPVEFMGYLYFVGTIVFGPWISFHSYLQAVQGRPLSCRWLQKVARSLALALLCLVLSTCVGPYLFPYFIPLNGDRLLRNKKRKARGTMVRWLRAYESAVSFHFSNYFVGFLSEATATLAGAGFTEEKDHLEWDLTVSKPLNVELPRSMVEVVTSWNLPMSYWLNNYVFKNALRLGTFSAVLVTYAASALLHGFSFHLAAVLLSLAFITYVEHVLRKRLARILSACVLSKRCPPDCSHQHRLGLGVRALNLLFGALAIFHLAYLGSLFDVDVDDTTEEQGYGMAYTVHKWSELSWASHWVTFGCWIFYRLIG
Nature of the experiment: (§1) Inhibition of porcupine in human HEK293 cells assessed as reduction in Wnt secretion by measuring suppression of beta-catenin reporter activity after 24 hrs by STF reporter assay. It is filed as cell-based.

Another experiment deals with HPAF-II. In words: (§2) Antitumor activity against human HPAF2 cells xenografted in Balb/c mouse assessed as tumor growth inhibition at 100 mg/kg. It is filed as functional. Background: A xenograft is tissue or cells of one species grown in another, often human tumour cells in immunodeficient mice.
Experiment [4] in a line: as §2. It is filed as functional. The conditions noted are these: HPAF-II, read-out: TGI.
For experiment [5], the target named is T3, Protein-serine O-palmitoleoyltransferase porcupine (Homo sapiens, UniProt Q9H237).
T3 sequence (Q9H237 whole entry): T2 sequence (whole entry)
The experiment is described as §1. In kind it is cell-based.

Experiment [6] has as its target T2, Protein-serine O-palmitoleoyltransferase porcupine (Homo sapiens). Nature of the experiment: Binding affinity to porcupine (unknown origin).
In experiment [7] the target is T3, Protein-serine O-palmitoleoyltransferase porcupine. In words: Inhibition of porcupine activity (unknown origin) expressed in human HT1080 cells assessed as suppression of Wnt3A-mediated super top flash activity by STF luciferase assay. It is filed as cell-based, HT-1080.
Experiment [8] has the same target. In words: Inhibition of porcupine in human HEK293 cells by STF reporter assay. In kind it is cell-based. In general terms: Reporter assays use an easily measured gene product as a stand-in for the process of interest.

Where only a bound is given, the exact number is not on record here.

In general, IC50 refers to the concentration that gives 50% inhibition.

With `Cn1c(=O)c2c(ncn2CC(=O)Nc2ccc(-c3ccccc3)nn2)n(C)c1=O` [ETC-159], the IC50 was 70 nM in experiment [1] and 18.1 nM in experiment [2]. Also, in experiment [3], the inhibition entry was “Dose-dependent effect”. Further, the TGI result with HPAF-II was “Dose-dependent effect”. For the same molecule, in experiment [4], the inhibition in vivo at 100 mg/kg turned out to be 90%.

As to `C[C@H](C(=O)Nc1ccc(-c2ccsc2)cc1)n1cnc2c1c(=O)n(C)c(=O)n2C`, the half-inhibitory concentration (IC50) in experiment [5] is 5.4 µM.

As for `COc1ccc2nc(NC(=O)CNC(=O)c3ccc(=O)n(-c4ccccc4)c3)sc2c1`, the Activity in experiment [6] was greater than 25 µM.

Turning to `COc1ccc(-n2nc(C(=O)NCC(=O)Nc3nc4ccc(OC)cc4s3)c3ccccc3c2=O)cc1`, the IC50 in [7] turned out to be 60 nM.

As for `C[C@@H](C(=O)Nc1ccc(-c2ccsc2)cc1)n1cnc2c1c(=O)n(C)c(=O)n2C`, the inhibition result in experiment [3] was “Dose-dependent effect”.

Consider `Cc1cc(-c2ccc(CC(=O)Nc3ccc(-c4cccnc4)cc3)cc2)ccn1`, for which, in experiment [7], the concentration for half-maximal inhibition (IC50) was 0.074 nM.

`O=C(CNC(=O)c1nn(-c2ccccc2)c(=O)c2ccccc12)Nc1nccs1` had an Activity in experiment [6] greater than 25 µM.

For `Cn1c(=O)c2c(nc3n2[C@H](CC(=O)Nc2ccc(-c4ccccc4)nn2)CC3)n(C)c1=O`, the IC50 in [8] was 5 nM.

Source of the values: ChEMBL document CHEMBL3632565, “The use of porcupine inhibitors to target Wnt-driven cancers” (Bioorg Med Chem Lett, 2015).
